Columns and labels:
rat EP4 receptor = biological target: T1, rat EP4 receptor (Rattus norvegicus, UniProt P43114); test: Evaluation test on EP4 receptor affinity in rat ([3H]PGE2 receptor binding test); conditions: [3H]PGE2 0.3 nM, membrane fraction of rat EP4 expressing HEK293 cells
T1 construct: expressed in transfected cells; host or cells: HEK293 cells, transient transfection with Lipofectamine 2000; membrane fraction used
Method: A rat EP4 receptor cDNA was subcloned into an expression vector (pcDNA3.1-V5-His-topo, manufactured by Invitrogen Corporation) to prepare a rat EP4 expression vector. HEK293 cells were cultured in a collagen type I-treated 15 cm dish (manufactured by Asahi Techno Glass Co., Ltd.) to a confluence of 70%. An Opti-MEM culture medium at 1.2 mL/dish and a transfection reagent (Lipofectamine 2000, manufactured by Invitrogen Corporation) at 60 μL/dish were mixed, followed by being left to stand at room temperature for 5 minutes. Then, the rat EP4 receptor expression vector at 15 μg/dish was added thereto, followed by being left to stand at room temperature for 30 minutes. The liquid mixture of the transfection reagent was added into the dish, followed by culturing for 20 to 24 hours. The cell culture was carried out in a CO2 incubator (37° C., 5% CO2).
The culture medium was removed by suction, 10 mL of cooled PBS was added thereto per 15 cm dish, and the cells were scraped using a cell scraper. After washed with cooled PBS (1,200 rpm, 4° C., 5 minutes), suspended in 6 mL/dish of cooled 20 mM Tris-HCl (pH 7.4; manufactured by Nacalai Tesque Inc., 5 mM EDTA included) and homogenized using a Polytron, the homogenate was centrifuged (26,000 rpm, 20 minutes, 4° C.). The obtained precipitate was resuspended in cooled 20 mM Tris-HCl and homogenized again using a Polytron, and the homogenate was centrifuged (26,000 rpm, 20 minutes, 4° C.). The obtained precipitate was resuspended in 50 mM HEPES (pH 7.5; manufactured by Dojindo Laboratories) at 1 mL per dish, homogenized using a Polytron, and freeze-stored at −80° C. as a membrane fraction. At this time, a part thereof was used for the measurement of the protein concentration. Measurement of the protein concentration was carried out using a Protein assay stain (manufactured by Bio-Rad Laboratories) in accordance with a standard Protocol as appended in duplicate.
[^3H]PGE2 50 μL (final concentration 0.3 nM; manufactured by Perkin Elmer Co., Ltd.), 100 μL (20 μg/well) of the membrane fraction prepared from the rat EP4 expression cell, and 50 μL of a test compound were mixed in a 96-well microplate (manufactured by Sumitomo Bakelite Co., Ltd.), incubated at room temperature for 1 hour, then filtered by suction on a microplate (UniFilter-96 GF/B, manufactured by Perkin Elmer Co., Ltd.) using a cell harvester (FilterMate Harvester, manufactured by Perkin Elmer Co., Ltd.), and washed three times with 300 μL/well of a cooled assay buffer (50 mM HEPES, 10 mM MgCl2). Dilution of [^3H]PGE2 and the membrane fraction was carried out using the assay buffer, and dilution of the test compound and the unlabeled PGE2 was carried out using dimethyl sulfoxide and the assay buffer. The UniFilter-96 GF/B was treated by preliminarily washing twice with 200 μL/well of the cooled assay buffer. The UniFilter-96 GF/B after filtration was dried in a dryer overnight, 50 μL/well of a liquid scintillation cocktail (MicroScint20, manufactured by Perkin Elmer Co., Ltd.) was added thereto, and the radioactivity was then measured using a liquid scintillation counter for a microplate (TopCount, manufactured by Perkin Elmer Co., Ltd.). For measurement of the non-specific binding, an unlabeled PGE2 (final concentration 1 μM; manufactured by Cayman Chemical Company) was added. All of the measurements were carried out in duplicate, and the specific binding amount was determined by subtracting the non-specific binding amount from the total binding amount.
According to the test method as described above, the rat EP4 receptor affinity (Ki) of the compound of the present invention was measured. […] In addition, Ex means Example Compound No.

[1] = tested on: hindlimb blood flow in anesthetized rat; test: Hindlimb blood flow increasing action in anesthetized rat; type: in vivo; conditions: oral, Wistar male rats
Method: Wistar male rats were used. The test compound was orally administered, and after 2 hours, the hindlimb blood was measured using a laser blood flow imaging apparatus (PIM II, manufactured by Integral Corporation). At 20 minutes before the measurement, 60 mg/kg of pentobarbital was intraperitoneally administered to conduct anesthesia.

T1 sequence (P43114 whole entry): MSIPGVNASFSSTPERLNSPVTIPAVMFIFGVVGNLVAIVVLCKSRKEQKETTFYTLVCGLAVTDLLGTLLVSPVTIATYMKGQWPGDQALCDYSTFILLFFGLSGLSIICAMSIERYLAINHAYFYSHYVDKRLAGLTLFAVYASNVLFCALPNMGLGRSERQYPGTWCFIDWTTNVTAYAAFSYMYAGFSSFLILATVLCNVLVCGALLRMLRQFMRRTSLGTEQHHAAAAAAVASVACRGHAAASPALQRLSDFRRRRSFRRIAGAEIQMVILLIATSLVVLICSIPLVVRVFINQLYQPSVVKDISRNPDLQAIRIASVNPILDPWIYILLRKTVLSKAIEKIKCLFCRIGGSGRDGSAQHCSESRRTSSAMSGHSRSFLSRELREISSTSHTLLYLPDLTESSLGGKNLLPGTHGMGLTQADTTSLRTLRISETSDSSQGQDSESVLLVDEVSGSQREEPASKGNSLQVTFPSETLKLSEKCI

COc1cccc(COc2c(Br)cc(Cl)cc2CCc2ccc(C(=O)O)cc2)c1 [4-(2-{3-bromo-5-chloro-2-[(3-methoxybenzyl)oxy]phenyl}ethyl)benzoic acid, reference compound]
Ki (rat EP4 receptor): 27 nM | lowest effective dose causing a blood flow increasing action of 120% or more [1]: 3 mg/kg

CC(C)c1cccc(OCc2c(Cl)cc(Cl)c(=O)n2CCc2ccc(C(=O)O)cc2)c1 [Example 1, 4-(2-{3,5-dichloro-6-[(3-isopropylphenoxy)methyl]-2-oxopyridin-1(2H)-yl}ethyl)benzoic acid]
Ki (rat EP4 receptor): 2.8 nM

COc1cccc(OCc2c(Br)cc(Br)c(=O)n2CCc2ccc(C(=O)O)cc2)c1 [Example 2, 4-(2-{3,5-dibromo-6-[(3-methoxyphenoxy)methyl]-2-oxopyridin-1(2H)-yl}ethyl)benzoic acid]
Ki (rat EP4 receptor): 61 nM

COc1cccc(/C=C/c2c(Br)cc(Br)c(=O)n2CCc2ccc(C(=O)O)cc2)c1 [Example 4, 4-(2-{3,5-dibromo-6-[(E)-2-(3-methoxyphenyl)vinyl]-2-oxopyridin-1(2H)-yl}ethyl)benzoic acid]
Ki (rat EP4 receptor): 7.1 nM

COc1cccc(/C=C/c2c(Br)cc(Br)c(=O)n2CCCCCCC(=O)O)c1 [Example 15]
Ki (rat EP4 receptor): 35 nM

CC(C)Oc1ccccc1OCc1c(Cl)cc(Cl)c(=O)n1CCc1ccc(C(=O)O)cc1 [Example 74]
Ki (rat EP4 receptor): 10 nM

CCOc1ccccc1CCc1c(Cl)cc(Cl)c(=O)n1CCc1ccc(C(=O)O)cc1 [Example 90]
Ki (rat EP4 receptor): 6.2 nM

CC(C)c1cccc(/C=C/c2c(Cl)cc(Cl)c(=O)n2CCc2ccc(C(=O)O)cc2)c1 [Example 91]
Ki (rat EP4 receptor): 9.4 nM

CCCOc1cccc(/C=C/c2c(Cl)cc(Cl)c(=O)n2CCc2ccc(C(=O)O)cc2)c1 [Example 99]
Ki (rat EP4 receptor): 1.7 nM

O=C(O)c1ccc(CCn2c(/C=C/c3ccccc3OC(F)(F)F)c(Cl)cc(Cl)c2=O)cc1 [Example 106]
Ki (rat EP4 receptor): 30 nM

O=C(O)c1ccc(CCn2c(/C=C/c3cccc(OC(F)(F)F)c3)c(C3CC3)cc(Cl)c2=O)cc1 [Example 120]
Ki (rat EP4 receptor): 7.9 nM

O=C(O)c1ccc(CCn2c(CCc3cccc(OC(F)(F)F)c3)c(C3CC3)cc(Cl)c2=O)cc1 [Example 122]
Ki (rat EP4 receptor): 12 nM

CCc1cccc(/C=C/c2c(Br)ccc(=O)n2CCc2ccc(C(=O)O)cc2)c1 [Example 124]
Ki (rat EP4 receptor): 4.4 nM

CCc1cccc(/C=C/c2c(Cl)ccc(=O)n2CCc2ccc(C(=O)O)cc2)c1 [Example 125]
Ki (rat EP4 receptor): 7.5 nM

O=C(O)c1ccc(CCn2c(/C=C/c3cccc(OC(F)(F)F)c3)c(Cl)ccc2=O)cc1 [Example 126]
Ki (rat EP4 receptor): 4.9 nM

CCc1cccc(OCc2c(C3CC3)cc(Cl)c(=O)n2CCc2ccc(C(=O)O)cc2)c1 [Example 139]
Ki (rat EP4 receptor): 8.2 nM

CCCc1cccc(OCc2c(Cl)cc(Cl)c(=O)n2CCc2ccc(C(=O)O)cc2)c1 [Example 171]
Ki (rat EP4 receptor): 1.1 nM

O=C(O)c1ccc(CCn2c(CCc3ccccc3OC(F)(F)F)c(Cl)cc(Cl)c2=O)cc1 [Example 350]
Ki (rat EP4 receptor): 19 nM

Reference: patent US20100179137A1, “PYRIDONE COMPOUND” (priority 2007, published 2010)
